Experimental data from patent US20240058464A1 (Fortis Therapeutics, Inc., priority 2021, published 2024).

Columns and labels:
[1] = tested on: CD46 expression; assay: CD46 expression by RNA-sequencing in paired tumor biopsies before and after therapy; conditions: for CD46 expression diff (post minus pre) / Percent Change in CD46 expression / CD46 expression, Post-Treatment Biopsy / CD46 expression, Pre-Treatment Biopsy: paired biopsies; for CD46 expression, Post-Treatment Biopsy / CD46 expression, Pre-Treatment Biopsy: RNA-seq log2-transformed counts;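 on all read-outs here: FFPE human tumor biopsies, exome-capture RNA-seq, reads aligned to GRCh37, counts normalized for GC content, length and depth, summed per gene, log2-transformed, samples paired before versus after therapy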
[2] = tested on: CD46 expression; assay: CD46 expression by RNA-sequencing in unpaired pre-treatment and post-treatment tumor biopsies; format: in vivo, human; conditions: for CD46 expression Post: post-treatment biopsies
[3] = Prostate Cancer, Post minus Pre, unpaired biopsies, log2-transformed counts
[4] = Prostate Cancer, post- vs pre-treatment unpaired biopsies
[5] = Colorectal Cancer, Post minus Pre, unpaired biopsies, log2-transformed counts
[6] = Colorectal Cancer, post- vs pre-treatment unpaired biopsies
[7] = Colorectal Cancer, unpaired, RNA-seq log2-transformed normalized counts

For CCNC(=O)[C@@H]1CCCN1C(=O)[C@H](CCCNC(=N)N)NC(=O)[C@H](CC(C)C)NC(=O)[C@@H](CC(C)C)NC(=O)[C@H](Cc1ccc(O)cc1)NC(=O)[C@H](CO)NC(=O)[C@H](Cc1c[nH]c2ccccc12)NC(=O)[C@H](Cc1c[nH]cn1)NC(=O)[C@@H]1CCC(=O)N1 [leuprolide], the “CD46 expression diff (post minus pre)” value ([1]; Prostate Cancer) was −0.19, the “Percent Change in CD46 expression” value ([1]; Prostate Cancer) was −3.1% and the “CD46 expression, Post-Treatment Biopsy” value ([1]; Prostate Cancer) was 5.92. The “CD46 expression, Pre-Treatment Biopsy” value ([1]; Prostate Cancer) was 6.11, the CD46 expression diff ([2]; Breast Cancer, post minus pre, unpaired biopsies) was −0.15 and the “CD46 expression Percentage change” value ([2]; Breast Cancer, post vs pre, unpaired biopsies) was −2.3%. For the same compound, the “CD46 expression Post” value ([2]; Breast Cancer, log2-transformed RNA-seq counts) was 6.18, the “CD46 expression Pre” value ([2]; Breast Cancer, pre-treatment biopsies, log2-transformed RNA-seq counts) was 6.33 and the CD46 expression diff [2, 3] was −0.10. The “CD46 expression Percentage change” value [2, 4] was −1.6% and the “CD46 expression Post” value ([2]; Prostate Cancer, unpaired, RNA-seq log2-transformed normalized counts) was 6.08.
CO[C@H]1C(=O)[C@]2(C)[C@@H](OC)C[C@H]3OC[C@@]3(OC(C)=O)[C@H]2[C@H](OC(=O)c2ccccc2)[C@]2(O)C[C@H](OC(=O)[C@H](O)[C@@H](NC(=O)OC(C)(C)C)c3ccccc3)C(C)=C1C2(C)C [cabazitaxel] was tested, and the “CD46 expression diff (post minus pre)” value ([1]; Prostate Cancer) was 0.07, the “Percent Change in CD46 expression” value ([1]; Prostate Cancer) was 1.2% and the “CD46 expression, Post-Treatment Biopsy” value ([1]; Prostate Cancer) was 5.93. The CD46 expression diff [2, 3] was 0.09 and the “CD46 expression Percentage change” value [2, 4] was 1.6%.
With nivolumab the “CD46 expression diff (post minus pre)” value ([1]; Melanoma) was −0.04, the “Percent Change in CD46 expression” value ([1]; Melanoma) was −0.7% and the “CD46 expression, Post-Treatment Biopsy” value ([1]; Melanoma) was 5.26. For the same compound, the “CD46 expression, Pre-Treatment Biopsy” value ([1]; Melanoma) was 5.29, the CD46 expression diff ([2]; Clear Cell Renal Cell Carcinoma, Post minus Pre, unpaired biopsies, log2-transformed counts) was −0.06 and the “CD46 expression Percentage change” value ([2]; Clear Cell Renal Cell Carcinoma, post- vs pre-treatment unpaired biopsies) was −1.1%. The “CD46 expression Post” value ([2]; Clear Cell Renal Cell Carcinoma, unpaired, RNA-seq log2-transformed normalized counts) was 5.50, the CD46 expression diff ([2]; Melanoma, Post minus Pre, unpaired biopsies, log2-transformed counts) was −0.02 and the “CD46 expression Percentage change” value ([2]; Melanoma, post- vs pre-treatment unpaired biopsies) was −0.5%. The “CD46 expression Post” value ([2]; Melanoma, unpaired, RNA-seq log2-transformed normalized counts) was 5.31, the CD46 expression diff ([2]; Non-Small Cell Lung Cancer, Post minus Pre, unpaired biopsies, log2-transformed counts) was −0.09 and the “CD46 expression Percentage change” value ([2]; Non-Small Cell Lung Cancer, post- vs pre-treatment unpaired biopsies) was −1.5%. The “CD46 expression Post” value ([2]; Non-Small Cell Lung Cancer, unpaired, RNA-seq log2-transformed normalized counts) was 6.11.
In the case of panitumumab, the “CD46 expression diff (post minus pre)” value ([1]; Colorectal Cancer) is reported as −0.10, the “Percent Change in CD46 expression” value ([1]; Colorectal Cancer) is reported as −1.4% and the “CD46 expression, Post-Treatment Biopsy” value ([1]; Colorectal Cancer) is reported as 6.62. The “CD46 expression, Pre-Treatment Biopsy” value ([1]; Colorectal Cancer) was 6.71, the CD46 expression diff [2, 5] was 0.28 and the “CD46 expression Percentage change” value [2, 6] was 4.4%. The “CD46 expression Post” value [2, 7] was 6.64.
In the case of O=c1[nH]cc(F)c(=O)[nH]1 [fluorouracil], the “CD46 expression diff (post minus pre)” value ([1]; Colorectal Cancer) is reported as −0.05, the “Percent Change in CD46 expression” value ([1]; Colorectal Cancer) is reported as −0.8% and the “CD46 expression, Post-Treatment Biopsy” value ([1]; Colorectal Cancer) is reported as 6.27. The “CD46 expression diff (post minus pre)” value ([1]; Esophageal Cancer) was −0.31, the “Percent Change in CD46 expression” value ([1]; Esophageal Cancer) was −5.2% and the “CD46 expression, Post-Treatment Biopsy” value ([1]; Esophageal Cancer) was 5.60. For the same compound, the “CD46 expression diff (post minus pre)” value ([1]; Gastric Cancer) was −0.09, the “Percent Change in CD46 expression” value ([1]; Gastric Cancer) was −1.5% and the “CD46 expression, Post-Treatment Biopsy” value ([1]; Gastric Cancer) was 5.66. The “CD46 expression diff (post minus pre)” value ([1]; Pancreatic Cancer) was 0.09, the “Percent Change in CD46 expression” value ([1]; Pancreatic Cancer) was 1.5% and the “CD46 expression, Post-Treatment Biopsy” value ([1]; Pancreatic Cancer) was 5.92. For the same compound, the “subjects whose paired biopsies showed decreased CD46 expression” value ([1]; esophageal cancer, 10 of 13 subjects, FIG. 4) was 77%, the CD46 expression diff ([2]; Biliary Cancer, Post minus Pre, unpaired biopsies, log2-transformed counts) was 0.00 and the “CD46 expression Percentage change” value ([2]; Biliary Cancer, post- vs pre-treatment unpaired biopsies) was 0.0%. The “CD46 expression Post” value ([2]; Biliary Cancer, unpaired, RNA-seq log2-transformed normalized counts) was 5.92, the CD46 expression diff ([2]; Breast Cancer, Post minus Pre, unpaired biopsies, log2-transformed counts) was 0.06 and the “CD46 expression Percentage change” value ([2]; Breast Cancer, post- vs pre-treatment unpaired biopsies) was 1.0%. The “CD46 expression Post” value ([2]; Breast Cancer, unpaired, RNA-seq log2-transformed normalized counts) was 6.18, the CD46 expression diff [2, 5] was 0.06 and the “CD46 expression Percentage change” value [2, 6] was 0.9%. For the same compound, the “CD46 expression Post” value [2, 7] was 6.44, the CD46 expression diff ([2]; Esophageal Cancer, Post minus Pre, unpaired biopsies, log2-transformed counts) was −0.06 and the “CD46 expression Percentage change” value ([2]; Esophageal Cancer, post- vs pre-treatment unpaired biopsies) was −1.0%. The “CD46 expression Post” value ([2]; Esophageal Cancer, unpaired, RNA-seq log2-transformed normalized counts) was 5.83, the CD46 expression diff ([2]; Gastric Cancer, post minus pre, unpaired biopsies) was −0.14 and the “CD46 expression Percentage change” value ([2]; Gastric Cancer, post vs pre, unpaired biopsies) was −2.4%. For the same compound, the “CD46 expression Post” value ([2]; Gastric Cancer, log2-transformed RNA-seq counts) was 5.65, the CD46 expression diff ([2]; Head and Neck Squamous Cell Carcinoma, Post minus Pre, unpaired biopsies, log2-transformed counts) was 0.03 and the “CD46 expression Percentage change” value ([2]; Head and Neck Squamous Cell Carcinoma, post- vs pre-treatment unpaired biopsies) was 0.6%. The “CD46 expression Post” value ([2]; Head and Neck Squamous Cell Carcinoma, unpaired, RNA-seq log2-transformed normalized counts) was 5.63, the CD46 expression diff ([2]; Pancreatic Cancer, post minus pre, unpaired biopsies) was −0.15 and the “CD46 expression Percentage change” value ([2]; Pancreatic Cancer, post vs pre, unpaired biopsies) was −2.5%. For the same compound, the “CD46 expression Post” value ([2]; Pancreatic Cancer, log2-transformed RNA-seq counts) was 5.76.
